Measured values taken from patent publication US5001223A, “Parathyroid hormone antagonists with enhanced metabolic properties” (Merck & Co., Inc., priority 1989, dated 1991).

Target: T1, parathyroid hormone cell surface receptor (bovine renal cortical plasma membranes) (Bos taurus, UniProt Q1LZF7)
T1 construct: from tissue; host or cells: bovine renal cortex plasma membranes
T1 sequence (Q1LZF7 29-589): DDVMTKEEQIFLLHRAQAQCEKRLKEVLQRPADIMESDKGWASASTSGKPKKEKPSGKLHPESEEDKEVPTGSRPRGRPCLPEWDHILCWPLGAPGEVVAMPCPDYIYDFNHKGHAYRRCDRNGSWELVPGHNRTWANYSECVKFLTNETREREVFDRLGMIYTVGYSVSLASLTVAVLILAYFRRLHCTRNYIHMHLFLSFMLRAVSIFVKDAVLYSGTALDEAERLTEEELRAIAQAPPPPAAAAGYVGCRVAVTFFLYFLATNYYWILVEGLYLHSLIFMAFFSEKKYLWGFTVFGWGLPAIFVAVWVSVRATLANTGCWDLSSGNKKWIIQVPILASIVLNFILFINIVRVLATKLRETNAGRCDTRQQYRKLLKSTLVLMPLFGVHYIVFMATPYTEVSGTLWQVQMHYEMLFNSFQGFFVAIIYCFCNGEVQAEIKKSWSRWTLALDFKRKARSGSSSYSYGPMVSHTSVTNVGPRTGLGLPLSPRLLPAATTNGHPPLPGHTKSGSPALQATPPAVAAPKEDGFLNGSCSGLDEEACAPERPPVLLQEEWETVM
Test: PTH binding assay (receptor assay, radioligand [Nle^8,18,^125 I-Tyr^34 ]bPTH(1-34)NH2)
Details: radioligand 25,000 cpm, Tris-containing buffer, 30 min. at 21° C.
Protocol: PTH analogues were analysed in a new receptor assay which modified the assay reported in Rosenblatt et al., Endocrin. 107: 545-550 (1980). The binding assay used [Nle^8,18,^125 I-Tyr^34 ]bPTH(1-34)NH2which was purified by HPLC (Novapak C18, 32-35% CH3 CN in 0.1% TFA) and was stored as aliquots in 25 mM TrisHCl/1% BSA at -70° C. Bovine renal cortical plasma membranes were incubated with radioligand (25,000 cpm) in a Tris-containing buffer (250 ul) for 30 min. at 21° C. Once equilibrium was reached, bound and free radioligand were separated by centrifugation. High specific binding (85%) to bovine renal cortical membranes was obtained consistently.

## CN[C@@H](Cc1ccccc1)C(=O)N[C@@H](CCSC)C(=O)N[C@@H](Cc1c[nH]cn1)C(=O)N[C@@H](CC(N)=O)C(=O)N[C@@H](CC(C)C)C(=O)NCC(=O)N[C@@H](CCCCN)C(=O)N[C@@H](Cc1c[nH]cn1)C(=O)N[C@@H](CC(C)C)C(=O)N[C@@H](CO)C(=O)N[C@@H](CO)C(=O)N[C@@H](CCSC)C(=O)N[C@@H](CCC(=O)O)C(=O)N[C@@H](CCCNC(=N)N)C(=O)N[C@H](C(=O)N[C@@H](CCC(=O)O)C(=O)N[C@@H](Cc1c[nH]c2ccccc12)C(=O)N[C@@H](CC(C)C)C(=O)N[C@@H](CCCNC(=N)N)C(=O)N[C@@H](CCCCN)C(=O)N[C@@H](CCCCN)C(=O)N[C@@H](CC(C)C)C(=O)N[C@@H](CCC(N)=O)C(=O)N[C@@H](CC(=O)O)C(=O)N[C@H](C(=O)N[C@@H](Cc1c[nH]cn1)C(=O)N[C@@H](CC(N)=O)C(=O)N[C@@H](Cc1ccc(O)cc1)C(N)=O)C(C)C)C(C)C [[NMePhe^7,Tyr^34]bPTH(7-34)NH2]
  Ki: 82 ± 14 nM
